Laboratory results reported in patent US11903385B1, “1-(butyl(2-hydroxy-3-(naphthalen-1-yloxy)propyl)amino)-3-(naphthalen-2-yloxy)propan-2-ol as an eco-friendly insecticidal agent against Spodoptera littoralis (boisd.)” (KING FAISAL UNIVERSITY, priority 2023, dated 2024).
In brackets after ≈: the same amount, converted by molar mass. Read-outs that look alike come from different tables or passages of the source.

How the values were obtained:
S. littoralis larvae = assay: Insecticidal leaf dip bioassay screening; details: 72 h; for Toxicity ratio: fenoxycarb's LC50 / the compound's LC50; for LC50: Spodoptera littoralis, foliar
Protocol: Until usage, the stocks were kept in a refrigerator. The target substance test results were noted & the concentrations needed to destroy 50% (LC50) of S. littoralis larvae were calculated. The target compound was employed in five different concentrations, and 0.1% Tween 80 was employed as a surfactant. Castor bean leaf discs (nine centimeters in diameter) were dipped in the concentration under test for ten seconds, then fed to 2th & 4th larvae, which were roughly the same size and housed in glass jars (five lb). Each action was carried out 3 times with ten larvae each. The mortality equalized via Abbott's formula. Calculations of mortality setback line were measurably rummage via probity analysis. […] The mortality results of larval insect were estimated through employing probit analysis through a statistics (LDP-line) equation which estimate the LC50 values with 95% fiducially limits of lower, upper confidence limit and slope.

aquatic insects = details: cited from earlier work
[1] = read-out: LC50 (mg/L) at 95%, 2nd instar larvae, after 72 h of treatment
[2] = read-out: LC50 (mg/L) at 95%, 4th instar larvae, after 72 h of treatment

Structure (SMILES) | Toxicity ratio (S. littoralis larvae; 2nd instar larvae) | Toxicity ratio (S. littoralis larvae; 4th instar larvae) | LC50 (S. littoralis larvae; [1]) | LC50 (S. littoralis larvae; [2]) | LC50 (aquatic insects)
CCOC(=O)NCCOc1ccc(Oc2ccccc2)cc1 [Fenoxycarb] | 1 | 1 | 2.73 mg/L (≈ 9.06 µM) | 9.18 mg/L (≈ 30.5 µM) | –
CCCCN(CC(O)COc1ccc2ccccc2c1)CC(O)COc1cccc2ccccc12 (stereo not drawn) [III, 1-(butyl(2-hydroxy-3-(naphthalen-1-yloxy)propyl)amino)-3-(naphthalen-2-yloxy)propan-2-ol] | 0.253 | 0.551 | ~10.8 mg/L (≈ 22.7 µM) | ~16.6 mg/L (≈ 35.2 µM) | –
CCc1ccc(C(=O)NN(C(=O)c2cc(C)cc(C)c2)C(C)(C)C)cc1 [tebufenozide] | – | – | – | – | 100 to 1000 µg/mL
